Laboratory results: patent US9663526B2, “Aminopyrimidinyl compounds” (Pfizer Inc., priority 2014, dated 2017)
pIC50: −log10 of the molar value. Read-outs that look alike come from different tables or passages of the source.

What was measured:
[1] = biological target: recombinant human kinase domain of JAK3 (Homo sapiens (Human), UniProt P52333); experiment: JAK Caliper enzyme assay at 1 mM ATP (JAK3); format: biochemical; settings: 1 mM ATP; read-out: IC50 (nM) JAK3;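 further: microfluidic mobility-shift readout of synthetic peptide phosphorylation, percent product converted from peak heights, normalized to DMSO-only wells as uninhibited baseline, room temperature incubation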
recombinant human kinase domain of JAK3, sequence (P52333 822-1111): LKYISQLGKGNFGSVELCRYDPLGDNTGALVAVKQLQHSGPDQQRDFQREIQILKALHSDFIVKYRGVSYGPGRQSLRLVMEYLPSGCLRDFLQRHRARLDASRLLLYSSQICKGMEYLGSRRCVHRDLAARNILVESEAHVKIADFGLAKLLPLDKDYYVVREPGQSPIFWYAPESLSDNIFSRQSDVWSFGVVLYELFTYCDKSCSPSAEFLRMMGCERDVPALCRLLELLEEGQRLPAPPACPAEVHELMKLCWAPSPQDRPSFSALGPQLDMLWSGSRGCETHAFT

[2] = biological target: recombinant human kinase domain of JAK1 (Homo sapiens (Human), UniProt P23458); experiment: JAK Caliper enzyme assay at 1 mM ATP (JAK1); format: biochemical; settings: 1 mM ATP; read-out: IC50 (nM) JAK1;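 further: microfluidic mobility-shift readout of synthetic fluorescent peptide phosphorylation, percent product converted from peak height, inhibition relative to DMSO-only wells as uninhibited baseline, room temperature incubation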
recombinant human kinase domain of JAK1, sequence (P23458 875-1153): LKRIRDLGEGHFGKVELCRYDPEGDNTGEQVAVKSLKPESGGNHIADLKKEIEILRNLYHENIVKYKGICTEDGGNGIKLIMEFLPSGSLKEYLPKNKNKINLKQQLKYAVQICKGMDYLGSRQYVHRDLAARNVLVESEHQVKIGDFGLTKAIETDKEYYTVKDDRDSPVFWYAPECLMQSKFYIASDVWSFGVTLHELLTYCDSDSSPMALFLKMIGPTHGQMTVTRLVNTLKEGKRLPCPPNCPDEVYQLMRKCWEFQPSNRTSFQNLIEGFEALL

[3] = biological target: recombinant human kinase domain of JAK2 (Homo sapiens (Human), UniProt O60674); experiment: JAK Caliper enzyme assay at 1 mM ATP (JAK2); format: biochemical;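 further: microfluidic mobility-shift read-out of fluorescent synthetic peptide phosphorylation, percent product converted from peak heights, room temperature, DMSO-only wells as uninhibited baseline, inhibition curve fit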
recombinant human kinase domain of JAK2, sequence (O60674 849-1124): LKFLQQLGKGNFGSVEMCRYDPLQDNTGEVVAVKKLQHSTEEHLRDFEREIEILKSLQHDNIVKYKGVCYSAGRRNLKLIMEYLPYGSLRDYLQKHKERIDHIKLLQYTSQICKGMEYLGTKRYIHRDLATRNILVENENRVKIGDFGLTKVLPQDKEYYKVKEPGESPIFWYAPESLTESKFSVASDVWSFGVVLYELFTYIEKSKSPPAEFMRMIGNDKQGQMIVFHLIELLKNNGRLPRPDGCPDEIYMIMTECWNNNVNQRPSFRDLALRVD

[4] = biological target: recombinant human kinase domain of TYK2 (Homo sapiens (Human), UniProt P29597); experiment: JAK Caliper enzyme assay at 1 mM ATP (TYK2); format: biochemical; settings: for IC50: 1 mM ATP, read-out: IC50 (nM) TYK2;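 on all read-outs here: microfluidic mobility-shift readout of synthetic peptide phosphorylation by TYK2, tuned to 20–30% conversion at room temperature, reaction stopped with EDTA, DMSO-only wells as uninhibited baseline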
recombinant human kinase domain of TYK2, sequence (P29597 897-1176): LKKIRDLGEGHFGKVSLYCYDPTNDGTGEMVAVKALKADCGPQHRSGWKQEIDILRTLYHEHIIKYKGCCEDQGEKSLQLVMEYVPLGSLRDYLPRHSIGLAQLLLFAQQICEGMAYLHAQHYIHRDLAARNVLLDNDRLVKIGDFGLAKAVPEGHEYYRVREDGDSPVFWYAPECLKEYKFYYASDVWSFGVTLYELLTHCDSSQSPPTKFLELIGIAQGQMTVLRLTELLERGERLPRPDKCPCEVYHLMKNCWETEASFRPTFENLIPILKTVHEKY

[5] = test system: interferon alpha signalling (TYK2 and JAK1), STAT3 phosphorylation; experiment: Human whole blood INFα induced STAT3 phosphorylation assay; format: cell-based; settings: compound 60 minutes at 37° C., IFNα 5000 U/ml for 15 minutes, pSTAT3 in lymphocyte population by flow cytometry, read-out: HWB IFN alpha IC50;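 further: flow cytometry with anti-pSTAT3 staining, signal as percent-positive × mean fluorescence, baseline from unstimulated wells, 11-point dilution series, IC50 as inhibition of pSTAT3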

## Cn1cc(Nc2nccc(N3C[C@H]4CC[C@@H](C3)N4C[C@@H]3CC3(F)F)n2)cn1 [Example 64, 4-[(1R,5S)-8-{[(1S)-2,2-difluorocyclopropyl]methyl}-3,8-diazabicyclo[3.2.1]oct-3-yl]-N-(1-methyl-1H-pyrazol-4-yl)pyrimidin-2-amine]
[1]
  IC50: > 10000 nM
[2]
  IC50: 95 nM
[3]
  IC50: 320 nM
[4]
  IC50: 41 nM
[5]
  pIC50: 7.15

## C[C@@H](CO)c1ccc(Nc2nccc(N3C[C@H]4CC[C@@H](C3)N4C(=O)[C@@H]3CC3(F)F)n2)cn1 (single isomer, unassigned) [Example 11]
[1]
  IC50: > 10000 nM
[2]
  IC50: 139 nM
[3]
  IC50: 141 nM
[4]
  pIC50: 7.40
[5]
  pIC50: 6.87

## CCNC(=O)c1ccc(Nc2nccc(N3CC4CC(C3)N4C(=O)C(C)(F)F)n2)cc1 [Example 114, 4-({4-[6-(2,2-difluoropropanoyl)-3,6-diazabicyclo[3.1.1]hept-3-yl]pyrimidin-2-yl}amino)-N-ethylbenzamide]
[1]
  IC50: > 10000 nM
[2]
  IC50: 955 nM
[3]
  IC50: 1860 nM
[4]
  IC50: 62 nM
[5]
  pIC50: 6.78

## O=C(C1CC1)N1[C@@H]2CC[C@H]1CN(c1ccnc(Nc3cn[nH]c3)n1)C2 [Example 49, cyclopropyl{(1R,5S)-3-[2-(1H-pyrazol-4-ylamino)pyrimidin-4-yl]-3,8-diazabicyclo[3.2.1]oct-8-yl}methanone]
[1]
  IC50: > 10000 nM
[2]
  IC50: 77 nM
[3]
  IC50: 614 nM
[4]
  IC50: 49 nM
[5]
  pIC50: 7.07

## CC(C)(C#N)c1ccc(Nc2nccc(N3C[C@H]4CC[C@@H](C3)N4C(=O)[C@@H]3CC3(F)F)n2)cn1 [Example 26, 2-[5-({4-[(1R,5S)-8-{[(1S)-2,2-difluorocyclopropyl]carbonyl}-3,8-diazabicyclo[3.2.1]oct-3-yl]pyrimidin-2-yl}amino)pyridin-2-yl]-2-methylpropanenitrile]
[1]
  IC50: > 10000 nM
[2]
  IC50: 60 nM
[3]
  IC50: 192 nM
[4]
  IC50: 25 nM
[5]
  pIC50: 6.61

## C[C@H](CO)c1ccc(Nc2nccc(N3C[C@H]4CC[C@@H](C3)N4C(=O)[C@@H]3CC3(F)F)n2)cn1 (single isomer, unassigned) [Example 12]
[1]
  IC50: > 10000 nM
[2]
  IC50: 79 nM
[3]
  IC50: 80 nM
[4]
  pIC50: 7.55
[5]
  pIC50: 7.06

## CNC(=O)c1ncc(Nc2nccc(N3C[C@H]4CC[C@@H](C3)N4C(=O)[C@@H]3CC3(F)F)n2)cc1Cl [Example 10, 3-chloro-5-({4-[(1R,5S)-8-{[(1S)-2,2-difluorocyclopropyl]carbonyl}-3,8-diazabicyclo[3.2.1]oct-3-yl]pyrimidin-2-yl}amino)-N-methylpyridine-2-carboxamide]
[1]
  IC50: > 10000 nM
[2]
  IC50: 171 nM
[3]
  IC50: 367 nM
[4]
  IC50: 22 nM
[5]
  pIC50: 6.36
